Results as given in patent US20240174622A1, “COMPOUND AND RADIOACTIVE LABELING COMPOUND” (NIHON MEDI-PHYSICS CO., LTD., priority 2021, published 2024).

How the values were obtained:
LNCaP tumor = assay: SPECT/CT using LNCaP tumor-transplanted mouse; assay type: in vivo
Method: (§1) LNCaP tumor-implanted mice prepared by the method described above were administered saline solutions (1.9 to 3.0 MBq, 150 μL) of [^111In]In-PSMA-DA1 or [^111In]In-PSMA-DB from the tail vein. SPECT/CT was performed 24 and 48 hours after administration with FX3300 pre-clinical imaging system, which is manufactured by Gamma Medica-Ideas. Imaging was performed using a pinhole collimator with a diameter of 1.0 mm at a rotation radius of 35 mm, a projection time of 70 seconds, and the number of projections of 32 times under isoflurane anesthesia. After SPECT, CT (Tube voltage: 60 kV, Tube current: 350 μA) was performed. Image reconstruction was performed on the projection data of SPECT through three-dimensional ordered subset expectation maximization method (8 subsets, 5 iterations).
In the figure, the part indicated by the arrow is the location of the tumor, and the part indicated by the circle is the location of the kidney. The higher the SUV, the higher the radioactivity accumulation. […]
as §1, with “SPECT/CT” for “LNCaP tumor-implanted mice prepared by the method described above were administered saline solutions (1.9 to 3.0 MBq, 150 μL) of [^111In]In-PSMA-DA1 or [^111In]In-PSMA-DB from the tail vein. SPECT/CT”, “24, 48,” for “24”, “96” for “48”

[1] = test system: PC-3 tumor-transplanted mouse; assay: Internal radioactivity distribution using PC-3 tumor-transplanted mouse; assay type: in vivo; conditions: for Blood / Brain / Heart / Intestine / Kidney / Liver / Lung / Muscle / PC-3 Tumor / Pancreas / Spleen / Stomach (% ID): PC-3 tumor-transplanted mice; for accumulation at the PC-3 tumor compared with the LNCaP tumor at the same time point (in words): mouse, in vivo
Method: (§2) The animal test was performed in compliance with the guidelines of Kyoto University Animal Experiment Committee. Male CB17/IcrJcl-Prkdc^scid mice were purchased from CLEA Japan, Inc. The animals were kept under 12 h/12 h, day/night cycle conditions and fed ad libitum with food and water. LNCaP cells (1.0×10^7 cells/mouse) or PC-3 cells (1.0×10^7 cells/mouse) were suspended in a mixture of PBS and Matrigel manufactured by Corning Life Sciences (1:1, 150 μL) and the suspension was subcutaneously transplanted to the right shoulder of mice under isoflurane anesthesia. Thereafter, the mice were kept for 40 to 60 days.
LNCaP or PC-3 tumor-implanted mice were administered saline solutions (185 kBq, 100 μL) of [^111In]In-PSMA-DA1 or [^111In]In-PSMA-DB from the tail vein (n=3 each). Mice were euthanized 1, 4, 24, 48, 96, and 192 hours after administration. Thereafter, blood and each organ were recovered, and the mass and radioactivity of the organs were measured.
The percentage (% ID) of the radioactivity amount to the administered radioactivity amount (injected dose) is shown as the value (% ID/g) divided by the blood mass or the organ mass (g).
as §2, with “LNCaP cells (4.3×10^6 cells/mouse) or” for “LNCaP cells (1.0×10^7 cells/mouse) or”, “PC-3 cells (3.3×10^6 cells/mouse) were” for “PC-3 cells (1.0×10^7 cells/mouse) were”, “shoulder of CB17/IcrJcl-Prkdc^scid mice under” for “shoulder of mice under”
Mice were euthanized 1, 4, 24, 48, 96, and 192 hours after administration. Thereafter, blood and each organ were recovered, and the mass and radioactivity of the organs were measured.
The results are shown in Table 13 (Mean value±standard deviation, n=3).

[2] = 24 (and 48) hours after administration

Row | Structure (SMILES) | radioactivity accumulation at the LNCaP tumor in SPECT/CT (LNCaP tumor; [2]) | radioactivity accumulation at the kidney in SPECT/CT (LNCaP tumor; [2]) | accumulation at the PC-3 tumor compared with the LNCaP tumor at the same time point (in words) [1] | Blood ([1]; 24 h after administration) [% ID/g] | Brain ([1]; 24 h after administration) [% ID/g] | Heart ([1]; 24 h after administration) [% ID/g] | Intestine ([1]; 24 h after administration) [% ID/g] | Kidney ([1]; 24 h after administration) [% ID/g] | Liver ([1]; 24 h after administration) [% ID/g] | Lung ([1]; 24 h after administration) [% ID/g] | Muscle ([1]; 24 h after administration) [% ID/g] | PC-3 Tumor ([1]; 24 h after administration) [% ID/g] | Pancreas ([1]; 24 h after administration) [% ID/g] | Spleen ([1]; 24 h after administration) [% ID/g] | Stomach (% ID) ([1]; 24 h after administration) | other results
1 | O=C([O-])CN(Cc1cccc(C(=O)[O-])n1)C[C@H](Cc1ccc(NC(=O)[C@H](CCCCNC(=O)CCC(=O)NCCCC[C@H](NC(=O)N[C@@H](CCC(=O)O)C(=O)O)C(=O)O)NC(=O)CCCc2ccc(I)cc2)cc1)N(CC(=O)[O-])Cc1cccc(C(=O)[O-])n1.[111In+3] [[^111In]In-Octapa-2] | high radioactivity accumulation | also observed |  |  |  |  |  |  |  |  |  |  |  |  |  | 
2 | O=C(O)CC[C@H](NC(=O)N[C@@H](CCCCNC(=O)[C@H](Cc1ccc2ccccc2c1)NC(=O)[C@H]1CC[C@H](CNC(=O)CCC(C(=O)O)N2CCN(CC(=O)O)CCN(C(CCC(=O)N[C@@H](CCCCNC(=O)CCCc3ccc(I)cc3)C(=O)O)C(=O)O)CCN(CC(=O)O)CC2)CC1)C(=O)O)C(=O)O (stereo partly drawn) [[^111In]In-PSMA-NAT-DA1, metal not drawn] | significant radioactivity accumulation | also observed | significantly lower | 5.73 ± 1.10 | 0.22 ± 0.03 | 2.67 ± 0.58 | 0.68 ± 0.07 | 27.9 ± 6.05 | 1.74 ± 0.37 | 7.41 ± 1.13 | 0.83 ± 0.26 | 3.21 ± 1.00 | 1.25 ± 0.04 | 6.94 ± 4.55 | 0.15 ± 0.03 | radioactivity accumulation at the kidney in SPECT/CT (LNCaP tumor; 96 hours after administration): hardly observed
3 | O=C([O-])CN1CCN(C(CCC(=O)NCCCC[C@H](NC(=O)N[C@@H](CCC(=O)O)C(=O)O)C(=O)O)C(=O)[O-])CCN(CC(=O)[O-])CCN(C(CCC(=O)N[C@@H](CCCCNC(=O)CCCc2ccc(I)cc2)C(=O)O)C(=O)[O-])CC1.[111In+3] (stereo partly drawn) [[^111In]In-PSMA-DA1] | significant radioactivity accumulation | High radioactivity accumulation | less accumulated | 5.73 ± 0.67 | 0.17 ± 0.04 | 1.90 ± 0.22 | 1.37 ± 0.22 | 9.56 ± 1.55 | 1.60 ± 0.12 | 4.74 ± 0.67 | 0.59 ± 0.02 | 2.69 ± 0.30 | 1.37 ± 0.04 | 2.52 ± 0.12 | 0.27 ± 0.08 | 

More lines, main results first:

Row | radioactivity accumulation at the LNCaP tumor in SPECT/CT (LNCaP tumor; [2]) | radioactivity accumulation at the kidney in SPECT/CT (LNCaP tumor; [2]) | accumulation at the PC-3 tumor compared with the LNCaP tumor at the same time point (in words) [1] | Structure (SMILES) | Blood ([1]; 24 h after administration) [% ID/g] | Brain ([1]; 24 h after administration) [% ID/g] | Heart ([1]; 24 h after administration) [% ID/g] | Intestine ([1]; 24 h after administration) [% ID/g] | Kidney ([1]; 24 h after administration) [% ID/g] | Liver ([1]; 24 h after administration) [% ID/g] | Lung ([1]; 24 h after administration) [% ID/g] | Muscle ([1]; 24 h after administration) [% ID/g] | PC-3 Tumor ([1]; 24 h after administration) [% ID/g] | Pancreas ([1]; 24 h after administration) [% ID/g] | Spleen ([1]; 24 h after administration) [% ID/g] | Stomach (% ID) ([1]; 24 h after administration) | other results
4 | high radioactivity accumulation |  |  | O=C([O-])CN1CCN(C(CCC(=O)NCCC(=O)N2Cc3ccccc3-c3c(nnn3CCOCCOCCOCCOCCC(=O)NCCCC[C@H](NC(=O)N[C@@H](CCC(=O)O)C(=O)O)C(=O)O)-c3ccccc32)C(=O)[O-])CCN(CC(=O)[O-])CCN(C(CCC(=O)N[C@@H](CCCCNC(=O)CCCc2ccc(I)cc2)C(=O)O)C(=O)[O-])CC1.[111In+3] (stereo partly drawn) [[^111In]In-PtDA] |  |  |  |  |  |  |  |  |  |  |  |  | 
5 | lower than at the kidney |  | less accumulated | O=C([O-])CN1CCN(C(CCC(=O)NCCCC[C@H](NC(=O)N[C@@H](CCC(=O)O)C(=O)O)C(=O)O)C(=O)[O-])CCN(CC(=O)[O-])CCN(C(CCC(=O)Nc2ccccc2)C(=O)[O-])CC1.[111In+3] (stereo partly drawn) [[^111In]In-PSMA-DB, reference compound] |  |  |  |  |  |  |  |  |  |  |  |  | Blood ([1]; 1 h after administration): 1.92 ± 0.27 % ID/g; Brain ([1]; 1 h after administration): 0.06 ± 0.00 % ID/g; Heart ([1]; 1 h after administration): 0.49 ± 0.05 % ID/g; Intestine ([1]; 1 h after administration): 0.48 ± 0.04 % ID/g; Kidney ([1]; 1 h after administration): 49.5 ± 12.6 % ID/g; Liver ([1]; 1 h after administration): 0.62 ± 0.03 % ID/g; Lung ([1]; 1 h after administration): 1.36 ± 0.23 % ID/g; Muscle ([1]; 1 h after administration): 0.21 ± 0.08 % ID/g; PC-3 Tumor ([1]; 1 h after administration): 0.61 ± 0.06 % ID/g; Pancreas ([1]; 1 h after administration): 0.44 ± 0.06 % ID/g; Spleen ([1]; 1 h after administration): 2.57 ± 0.39 % ID/g; Stomach (% ID) ([1]; 1 h after administration): 0.12 ± 0.04 % ID
